The text below walks through data of patent publication US10899737B2, “Piperazine carbamates and methods of making and using same” (Lundbeck La Jolla Research Center, Inc., priority 2016, dated 2021).

SMILES strings stand for the structures.

The target of test [1] is T1, MAGL (Mus musculus, UniProt O35678).
T1 construct: Proteomes (mouse brain membrane fraction or cell lysates); from tissue; host or cells: mouse brain membrane fraction or cell lysates
T1 sequence (O35678 1-303): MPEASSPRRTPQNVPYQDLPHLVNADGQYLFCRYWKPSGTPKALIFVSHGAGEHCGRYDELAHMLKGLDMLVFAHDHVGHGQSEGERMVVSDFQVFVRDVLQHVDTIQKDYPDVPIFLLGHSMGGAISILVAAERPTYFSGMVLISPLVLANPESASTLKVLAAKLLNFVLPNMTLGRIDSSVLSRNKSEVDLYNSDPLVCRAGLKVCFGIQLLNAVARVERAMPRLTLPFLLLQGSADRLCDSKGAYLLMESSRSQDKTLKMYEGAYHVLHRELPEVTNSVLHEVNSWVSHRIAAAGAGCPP
Kind of test: Mouse brain proteomes from inhibitor treated mice, MAGL inhibition. It is filed as in vivo. The conditions noted are these: 5 mg/kg oral gavage, C57Bl/6J mouse brain, 4 h following administration; read-out: MAGL % inh. 5 mg/kg (mouse). The protocol: Preparation of Mouse Brain Proteomes from Inhibitor Treated Mice.
Inhibitors were administered to wild-type C57Bl/6J by oral gavage in a vehicle of polyethylene glycol. Each animal was sacrificed 4 h following administration and brain proteomes were prepared and analyzed according to previously established methods (See Niphakis, M. J., et al. (2011) ACS Chem. Neurosci. and Long, J. Z., et al. Nat. Chem. Biol. 5:37-44).

The target of test [2] is T2, ABHD6 (Homo sapiens, UniProt Q9BV23).
T2 construct: Proteomes (human prefrontal cortex or cell membrane fractions); endogenous in cells; human prefrontal cortex
T2 sequence (Q9BV23 1-337): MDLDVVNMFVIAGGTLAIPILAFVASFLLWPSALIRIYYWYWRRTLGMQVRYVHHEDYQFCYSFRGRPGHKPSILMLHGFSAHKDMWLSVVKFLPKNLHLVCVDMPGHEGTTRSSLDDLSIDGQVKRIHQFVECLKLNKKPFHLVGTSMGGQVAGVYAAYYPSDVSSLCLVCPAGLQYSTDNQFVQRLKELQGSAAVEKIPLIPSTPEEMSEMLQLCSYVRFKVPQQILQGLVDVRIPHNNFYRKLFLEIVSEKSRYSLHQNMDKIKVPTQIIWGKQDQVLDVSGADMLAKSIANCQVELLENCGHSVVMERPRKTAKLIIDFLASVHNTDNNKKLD
Kind of test: In vitro competitive activity-based protein profiling (human), ABHD6. Type of test: biochemical. The conditions noted are these: human PC3. Put shortly: (§1)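 Human prefrontal cortex or cell membrane proteomes (1.0-2.0 mg/mL protein) preincubated 30 min at 37° C with inhibitor, then labeled 30 min RT with FP-Rh or JW912 probe. After SDS-PAGE, activity taken from fluorescent band intensity for each enzyme.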

Test [3] concerns the target T3, ABHD6 (Mus musculus, UniProt Q8R2Y0).
T3 construct: Proteomes (mouse brain membrane fraction or cell lysates); from tissue; host or cells: mouse brain membrane fraction or cell lysates
T3 sequence (Q8R2Y0 1-336): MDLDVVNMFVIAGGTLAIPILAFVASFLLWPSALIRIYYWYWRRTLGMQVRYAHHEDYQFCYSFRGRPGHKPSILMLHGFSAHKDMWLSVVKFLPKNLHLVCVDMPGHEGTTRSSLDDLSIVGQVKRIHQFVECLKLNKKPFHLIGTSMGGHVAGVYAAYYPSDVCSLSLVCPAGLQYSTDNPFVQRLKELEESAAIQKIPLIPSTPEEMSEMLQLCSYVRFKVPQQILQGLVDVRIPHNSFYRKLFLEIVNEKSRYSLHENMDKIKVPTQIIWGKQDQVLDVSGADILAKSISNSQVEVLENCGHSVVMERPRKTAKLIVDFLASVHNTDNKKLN
Kind of test: In vitro competitive activity-based protein profiling (mouse), ABHD6. It is filed as biochemical. The settings on record: 1 μM inhibitor, mouse brain membrane fraction or cell lysates; read-out: ABHD6 % inh. 1 μM (mouse). Put shortly: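 Mouse brain membrane proteome or cell lysate (1.0 mg/mL protein) preincubated 30 min at 37 °C with inhibitor, then labelled 30 min at 37 °C with FP-rhodamine probe. Remaining MAGL and ABHD6 activity quantified by in-gel fluorescence band intensity after SDS-PAGE; values are % inhibition at 1 μM.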

In test [4] the target is T1, MAGL. Kind of test: In vitro competitive activity-based protein profiling (mouse), MAGL. The conditions noted are these: for inhibition at 1 µM: 1 μM inhibitor, mouse brain membrane fraction or cell lysates, read-out: MAGL % inh. 1 μM (mouse); for IC50: mouse proteome. Type of test: biochemical. Put shortly: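 Mouse brain membrane fraction or cell lysate proteomes (50 μL, 1.0 mg/mL total protein) were preincubated with inhibitors at varying concentrations for 30 min at 37° C. FP-Rh (1.0 μL, 50 μM in DMSO) was then added for a further 30 min at 37° C. Samples were quenched with 4× SDS loading buffer and resolved by SDS-PAGE. MAGL activity was quantified from fluorescent gel band intensity using ImageJ 1.49 k.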

Test [5] has as its target T4, MAGL (Homo sapiens, UniProt Q99685).
T4 construct: Proteomes (human prefrontal cortex or cell membrane fractions); from tissue
T4 sequence (Q99685 1-303): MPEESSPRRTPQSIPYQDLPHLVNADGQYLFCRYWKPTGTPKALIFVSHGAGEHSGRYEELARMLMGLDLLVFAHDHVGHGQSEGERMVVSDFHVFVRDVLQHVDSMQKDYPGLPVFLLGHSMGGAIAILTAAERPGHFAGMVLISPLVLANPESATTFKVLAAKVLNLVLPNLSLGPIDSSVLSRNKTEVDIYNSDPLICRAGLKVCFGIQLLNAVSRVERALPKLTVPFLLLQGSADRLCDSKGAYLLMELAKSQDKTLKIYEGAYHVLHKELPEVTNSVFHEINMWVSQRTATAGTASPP
Kind of test: In vitro competitive activity-based protein profiling (human), MAGL. Type of test: biochemical. The settings on record: for inhibition at 1 µM: 1 μM inhibitor, human proteome, 30 min preincubation at 37° C, read-out: MAGL % inh. 1 μM (human); for IC50: human PC3. A digest of the protocol:
as §1

On to `O=C(O)Cn1ccc(-c2cc(C(F)(F)F)ccc2CN2CCN(C(=O)OC(C(F)(F)F)C(F)(F)F)CC2)n1` [Example 3, 2-(3-(2-((4-(((1,1,1,3,3,3-Hexafluoropropan-2-yl)oxy)carbonyl)piperazin-1-yl)methyl)-5-(trifluoromethyl)phenyl)-1H-pyrazol-1-yl)acetic Acid], for which the inhibition at 5 mg/kg on MAGL [1] lay within 0 to 25%. The IC50 at ABHD6 [2] was 0.1 to 1 µM; on MAGL [4], no more than 0.1 µM; at MAGL [5], no more than 0.1 µM. Further, the inhibition at 1 µM on ABHD6 [3], at MAGL [4] and on MAGL [5] was no less than 75% throughout.

With `O=C(O)CN1CCC2(CCN(c3cc(C(F)(F)F)ccc3CN3CCN(C(=O)OC(C(F)(F)F)C(F)(F)F)CC3)CC2)C1` [Example 18, 2-(8-(2-((4-(((1,1,1,3,3,3-Hexafluoropropan-2-yl)oxy)carbonyl)piperazin-1-yl)methyl)-5-(trifluoromethyl)phenyl)-2,8-diazaspiro[4.5]decan-2-yl)acetic Acid], the inhibition at 5 mg/kg at MAGL [1] lay in the range of 0 to 25%. The IC50 at ABHD6 [2] was 1 to 10 µM; on MAGL [4], no more than 0.1 µM; at MAGL [5], no more than 0.1 µM. The inhibition at 1 µM at ABHD6 [3] was 50 to 75%; on MAGL [4] it was no less than 75%; at MAGL [5], no less than 75%.

On to `O=C(O)CN1CC2CC1CN2c1cc(C(F)(F)F)ccc1CN1CCN(C(=O)OC(C(F)(F)F)C(F)(F)F)CC1` (stereo not drawn) [Example 25, 2-(5-(2-((4-(((1,1,1,3,3,3-Hexafluoropropan-2-yl)oxy)carbonyl)piperazin-1-yl)methyl)-5-(trifluoromethyl)phenyl)-2,5-diazabicyclo[2.2.1]heptan-2-yl)acetic Acid], for which, on MAGL [1], the inhibition at 5 mg/kg was in the range of 0 to 25%. The IC50 was 1 to 10 µM on ABHD6 [2] and no more than 0.1 µM on MAGL [5]. The inhibition at 1 µM is 0 to 25% at ABHD6 [3], no less than 75% at MAGL [4] and no less than 75% on MAGL [5].

As for `O=C(O)[C@@H]1CCCN(c2cc(C(F)(F)F)ccc2CN2CCN(C(=O)OC(C(F)(F)F)C(F)(F)F)CC2)C1` [Example 70, (R)-1-(2-((4-(((1,1,1,3,3,3-hexafluoropropan-2-yl)oxy)carbonyl)piperazin-1-yl)methyl)-5-(trifluoromethyl)phenyl)piperidine-3-carboxylic acid], the inhibition at 5 mg/kg on MAGL [1] was no less than 75%. Further, the values for the concentration for half-maximal inhibition (IC50) at ABHD6 [2] and on MAGL [5] were 1 to 10 µM and no more than 0.1 µM, respectively. Also, the inhibition at 1 µM on ABHD6 [3] is 0 to 25%; at MAGL [4], no less than 75%; at MAGL [5], no less than 75%.

Regarding `O=C(O)C1CCN(c2cc(OC(F)(F)F)ccc2CN2CCN(C(=O)OC(C(F)(F)F)C(F)(F)F)CC2)CC1` [Example 67, 1-(2-((4-(((1,1,1,3,3,3-hexafluoropropan-2-yl)oxy)carbonyl)piperazin-1-yl)methyl)-5-(trifluoromethoxy)phenyl)piperidine-4-carboxylic acid], the inhibition at 5 mg/kg at MAGL [1] was no less than 75%. Also, the IC50 is 1 to 10 µM at ABHD6 [2], no more than 0.1 µM at MAGL [4] and no more than 0.1 µM at MAGL [5]. The inhibition at 1 µM was 50 to 75% at ABHD6 [3], no less than 75% on MAGL [4] and no less than 75% on MAGL [5].

As to `Cc1cc(C(=O)O)sc1-c1cc(C(F)(F)F)ccc1CN1CCN(C(=O)OC(C(F)(F)F)C(F)(F)F)CC1` [Example 9, 5-(2-((4-(((1,1,1,3,3,3-Hexafluoropropan-2-yl)oxy)carbonyl)piperazin-1-yl)methyl)-5-(trifluoromethyl)phenyl)-4-methylthiophene-2-carboxylic Acid], the inhibition at 5 mg/kg on MAGL [1] was 25 to 50%. For the same compound, the figures for the IC50 on ABHD6 [2] and on MAGL [5] were 1 to 10 µM and no more than 0.1 µM, respectively. In addition, the inhibition at 1 µM on ABHD6 [3] is 50 to 75%; on MAGL [4] it was no less than 75%; at MAGL [5] it was no less than 75%.
